Assay results taken from publication PMC8838415, “Discovery of Novel Pleuromutilin Derivatives as Potent Antibacterial Agents for the Treatment of MRSA Infection” (Molecules, 2022).
Values after ≈ are worked out from the molar mass of the structure shown.

Tests used:
[1] = tested on: methicillin-resistant S. aureus (ATCC 43300); assay: MIC and MBC, broth dilution, MRSA ATCC 43300; type: cell-based; conditions: Staphylococcus aureus
Procedure: (§1) The synthesized pleuromutilin derivatives 8–30 were tested against four Gram-positive bacteria (MRSA ATCC 43300, S. aureus ATCC 29213 and two clinical strains of S. aureus (AD3 and 144) isolated from Guangdong Province). Tiamulin was used as the positive control in this experiment.
(§2) MIC values were tested following our previous work. The derivatives were dissolved in an aqueous solution of 2.5% tween-80 and 2.5% DMSO to make a solution with a concentration of 1000 µg/mL. The solution was diluted 12 times with MH broth to give a concentration range of 32–0.01 µg/mL. The bacteria (5 × 10^5 CFU/mL) were added in each well. For each compound concentration, three parallel experiments were set. The 96-well plate was incubated for 22–26 h at 37 °C. The MIC value was recorded as the minimal concentration that inhibits the visible growth of tested bacteria completely.
(§3) The MBC of these pleuromutilin derivatives were tested according to a previously reference. […] Then, the values of MBC were determined by laying 100 μL aliquots from the wells onto the MH agar plates without visible growth. The MH agar plate was cultured for a further 22–26 h at 37 °C.

S. aureus (144) = assay: MIC and MBC, broth dilution, S. aureus 144; type: cell-based; conditions: Staphylococcus aureus; S. aureus 144 (clinical strain)
Procedure: as §1, §2, §3

S. aureus (ATCC 29213) = assay: MIC and MBC, broth dilution, S. aureus ATCC 29213; type: cell-based; conditions: Staphylococcus aureus, ATCC29213
Procedure: as §1, §2, §3

50S ribosome = assay: SPR interaction and affinity analysis; type: binding, S. aureus ATCC 43300; conditions: 4 °C; for Avg kd / Avg ka: 1:1 Langmuir binding; for Kd: KD = Kd/Ka
Procedure: S. aureus ATCC 43300 was used to prepare the 50S ribosomal subunit the same way as described previously. Cells were grown overnight in Brain Heart Infusion broth at 37 °C and harvested for 1.5 h at an OD600. Cells were washed with 10 mM Tris-HCl twice at pH = 7.5, and resuspended in 5 mL buffer A (20 mM HEPES-HCl pH = 7.5, 21 mM Mg(OAc)2, 100 mM NH4Cl, 1 mM DTT, 1 mM EDTA). Cells were broken by an ultrasound crusher. The lysate was centrifuged for 90 min at 20,000× g to clear cell debris.
The solution was layered on a sucrose cushion of 15 mL (10 mM Hepes-KOH pH 7.5, 25 mM Mg(OAc)2, 500 mM KCl, […], 1 mM DTT, 0.5 mM EDTA). Centrifugation was carried out for 15 h at 45,000 rpm using an ultracentrifuge Beckman (Beckman Coulter, Shanghai, China), Type 70Ti rotor. The crude ribosome pellet was resuspended in buffer E (10 mM Hepes-KOH pH 7.5, 10 mM Mg(OAc)2, 100 mM KCl, 1 mM DTT, 0.5 mM EDTA), then layered on 9 mL of 7–30% sucrose gradient and centrifuged in an ultracentrifuge Beckman, type SW40Ti rotor at 17,100 rpm for 15 h. The gradient was analyzed on the AKTA explorer system (Amersham, UK). The fractions corresponding to the 50S ribosomal subunit were collected and further subjected to precipitation by PEG 20,000. The 50S ribosomal subunit pellet was gently dissolved in 200 µL of storage buffer (10 mM HEPES-HCl pH = 7.5, 10 mM Mg(OAc)2, 15 mM KCl, 60 mM NH4Cl, 1 mM DTT) and stored at −80 °C.
SPR affinity analysis was performed on the bScreen LB 991 Label-free Microarray System (Berthold Technologies, Black Forest, Germany) at 4 °C and Biodot AD-1520 Array Printer (BIODOT Inc., Irvine, CA, USA) with a Photo-cross-linker SensorCHIP™. Concentrations of each compound were diluted to 100 μM with DMSO as the printing working solution for immobilization. A Biodot AD-1520 Array Printer (BIODOT Inc., CA, USA) was used to control the photo-cross-linker sensor chip and print samples. Each sample was printed four times. In order to check the chip quality and check whether the detection system works, DMSO was used as a system-negative control and rapamycin as a positive control. All positive control dots were divided into four groups and printed on the four corners of the sensor chip. The sensor chip was dried in vacuum after the array print and quickly transferred to a spectra radiator for a photo cross-linking reaction. The sensor chip was washed with C2H5OH, DMF and H2O in turn and evaporated in a N2 atmosphere for 15 min. Then, the Flowcell Cover were assembled.
The 50S ribosome was diluted separately to 200 nM, 400 nM, 800 nM, 1600 nM and 3200 nM with PBST (pH = 7.4, 0.1% Tween 20). Different concentrations of ribosome solutions were injected at a flow rate of 0.5 μL⋅s^−1 for 600 s at the associating stage at 4 °C, followed by PBST at a flow rate of 0.5⋅μL·s^−1 for 360 s at each dissociating stage. Then, the surface was regenerated with Glycine-HCl (pH = 2.0) at a flow rate of 2⋅μL·s^−1 for 300 s.
The raw data of the binding process of compounds and the 50S ribosome were recorded in real time. We compared the response unit (RU) of surface resonance to determine the different binding affinity between each sample dot. The process and analysis of association rate constants (Ka) and dissociation rate constants (Kd) and the equilibrium dissociation constant (KD, Kd/Ka) were performed using the data analysis software of the bScreen LB 991 Label-free Microarray System according to a single-site binding model (1:1 Langmuir binding) with mass transfer limitations for binding kinetics determination.

S. aureus (AD3) = assay: MIC and MBC, broth dilution, S. aureus AD3; type: cell-based; conditions: Staphylococcus aureus; S. aureus AD3 (clinical strain)
Procedure: as §1, §2, §3

Structure (SMILES) | MBC [1] [µg/mL] | MIC [1] [µg/mL] | MBC (S. aureus (144)) [µg/mL] | MIC (S. aureus (144)) [µg/mL] | melting point [°C] | MBC (S. aureus (ATCC 29213)) [µg/mL] | MIC (S. aureus (ATCC 29213)) [µg/mL] | Avg kd (50S ribosome) [s⁻¹] | Kd (50S ribosome) [µM] | MBC (S. aureus (AD3)) [µg/mL] | MIC (S. aureus (AD3)) [µg/mL] | Avg ka (50S ribosome) [M⁻¹ s⁻¹]
C=C[C@]1(C)C[C@@H](OC(=O)CNc2ccc(Br)cc2)[C@]2(C)[C@H](C)CC[C@]3(CCC(=O)[C@H]32)[C@@H](C)[C@@H]1O [Compound 13, 22-(4-Bromoanilineyl)-22-deoxypleuromutilin] | 0.12 (≈ 0.225 µM) | 0.12 (≈ 0.225 µM) | 1 (≈ 1.88 µM) | 0.5 (≈ 0.939 µM) | 97 to 98 | 0.25 (≈ 0.469 µM) | 0.25 (≈ 0.469 µM) | 0.197 | 6350 | 1 (≈ 1.88 µM) | 0.25 (≈ 0.469 µM) | –
C=C[C@]1(C)C[C@@H](OC(=O)CNCCc2ccccc2C)[C@]2(C)[C@H](C)CC[C@]3(CCC(=O)[C@H]32)[C@@H](C)[C@@H]1O [Compound 18, 22-(2-Methylphenethylamineyl)-22-deoxypleuromutilin] | 2 (≈ 4.03 µM) | 1 (≈ 2.02 µM) | 4 (≈ 8.07 µM) | 4 (≈ 8.07 µM) | 91 to 93 | 8 (≈ 16.1 µM) | 2 (≈ 4.03 µM) | 0.00445 | 33.2 | 16 (≈ 32.3 µM) | 4 (≈ 8.07 µM) | 134
C=C[C@]1(C)C[C@@H](OC(=O)CNCCc2ccccc2)[C@]2(C)[C@H](C)CC[C@]3(CCC(=O)[C@H]32)[C@@H](C)[C@@H]1O [Compound 17, 22-(2-PhenylethylaMineyl)-22-deoxypleuromutilin] | 1 (≈ 2.08 µM) | 1 (≈ 2.08 µM) | 4 (≈ 8.3 µM) | 4 (≈ 8.3 µM) | 73 to 75 | 8 (≈ 16.6 µM) | 2 (≈ 4.15 µM) | 0.00963 | 4690 | 8 (≈ 16.6 µM) | 2 (≈ 4.15 µM) | 2.05
C=C[C@]1(C)C[C@@H](OC(=O)CNCc2ccccc2F)[C@]2(C)[C@H](C)CC[C@]3(CCC(=O)[C@H]32)[C@@H](C)[C@@H]1O [Compound 14, 22-(2-Fluorobenzylamineyl)-22-deoxypleuromutilin] | 2 (≈ 4.12 µM) | 1 (≈ 2.06 µM) | 8 (≈ 16.5 µM) | 4 (≈ 8.24 µM) | 163 to 164 | 8 (≈ 16.5 µM) | 4 (≈ 8.24 µM) | 0.065 | 424 | 8 (≈ 16.5 µM) | 2 (≈ 4.12 µM) | 153
C=C[C@]1(C)C[C@@H](OC(=O)CNc2cccc(Br)c2)[C@]2(C)[C@H](C)CC[C@]3(CCC(=O)[C@H]32)[C@@H](C)[C@@H]1O [Compound 12, 22-(3-Bromoanilineyl)-22-deoxypleuromutilin] | 0.25 (≈ 0.469 µM) | 0.12 (≈ 0.225 µM) | 2 (≈ 3.76 µM) | 1 (≈ 1.88 µM) | 161 to 163 | 0.5 (≈ 0.939 µM) | 0.25 (≈ 0.469 µM) | 6.25e-05 | 1.53 | 1 (≈ 1.88 µM) | 0.25 (≈ 0.469 µM) | –
C=C[C@]1(C)C[C@@H](OC(=O)CNCCSC)[C@]2(C)[C@H](C)CC[C@]3(CCC(=O)[C@H]32)[C@@H](C)[C@@H]1O [Compound 26, 22-(2-(Methylthio)ethylamineyl)-22-deoxypleuromutilin] | 1 (≈ 2.21 µM) | 1 (≈ 2.21 µM) | 4 (≈ 8.86 µM) | 2 (≈ 4.43 µM) | 153 to 155 | 2 (≈ 4.43 µM) | 2 (≈ 4.43 µM) | 0.779 | – | 4 (≈ 8.86 µM) | 1 (≈ 2.21 µM) | 1.26
